According to patent US20050181450A1, “Novel inositol 1,4,5-trisphosphate (IP3) receptor-binding protein and an IP3 indicator” (priority 2002, published 2005):
Each block holds one molecule with its values, some of them ahead of it.

Legend:
[1] = biological target: T1, IRBIT bound to GST-EL (mouse IP3R1 amino acids 1-2217) (Mus musculus, UniProt P11881, N1264K); assay: Dissociation of IRBIT from GST-EL by eluants (pulldown, immunoblot quantification); assay type: binding
T1 construct: construct a GST-IP3R1 (1-2217) vector (termed GST-EL); made in house; host or cells: Sf9 cells (baculovirus) for GST-EL; IRBIT from mouse cerebellum tissue extract
T1 sequence (P11881 1-2217 N1264K): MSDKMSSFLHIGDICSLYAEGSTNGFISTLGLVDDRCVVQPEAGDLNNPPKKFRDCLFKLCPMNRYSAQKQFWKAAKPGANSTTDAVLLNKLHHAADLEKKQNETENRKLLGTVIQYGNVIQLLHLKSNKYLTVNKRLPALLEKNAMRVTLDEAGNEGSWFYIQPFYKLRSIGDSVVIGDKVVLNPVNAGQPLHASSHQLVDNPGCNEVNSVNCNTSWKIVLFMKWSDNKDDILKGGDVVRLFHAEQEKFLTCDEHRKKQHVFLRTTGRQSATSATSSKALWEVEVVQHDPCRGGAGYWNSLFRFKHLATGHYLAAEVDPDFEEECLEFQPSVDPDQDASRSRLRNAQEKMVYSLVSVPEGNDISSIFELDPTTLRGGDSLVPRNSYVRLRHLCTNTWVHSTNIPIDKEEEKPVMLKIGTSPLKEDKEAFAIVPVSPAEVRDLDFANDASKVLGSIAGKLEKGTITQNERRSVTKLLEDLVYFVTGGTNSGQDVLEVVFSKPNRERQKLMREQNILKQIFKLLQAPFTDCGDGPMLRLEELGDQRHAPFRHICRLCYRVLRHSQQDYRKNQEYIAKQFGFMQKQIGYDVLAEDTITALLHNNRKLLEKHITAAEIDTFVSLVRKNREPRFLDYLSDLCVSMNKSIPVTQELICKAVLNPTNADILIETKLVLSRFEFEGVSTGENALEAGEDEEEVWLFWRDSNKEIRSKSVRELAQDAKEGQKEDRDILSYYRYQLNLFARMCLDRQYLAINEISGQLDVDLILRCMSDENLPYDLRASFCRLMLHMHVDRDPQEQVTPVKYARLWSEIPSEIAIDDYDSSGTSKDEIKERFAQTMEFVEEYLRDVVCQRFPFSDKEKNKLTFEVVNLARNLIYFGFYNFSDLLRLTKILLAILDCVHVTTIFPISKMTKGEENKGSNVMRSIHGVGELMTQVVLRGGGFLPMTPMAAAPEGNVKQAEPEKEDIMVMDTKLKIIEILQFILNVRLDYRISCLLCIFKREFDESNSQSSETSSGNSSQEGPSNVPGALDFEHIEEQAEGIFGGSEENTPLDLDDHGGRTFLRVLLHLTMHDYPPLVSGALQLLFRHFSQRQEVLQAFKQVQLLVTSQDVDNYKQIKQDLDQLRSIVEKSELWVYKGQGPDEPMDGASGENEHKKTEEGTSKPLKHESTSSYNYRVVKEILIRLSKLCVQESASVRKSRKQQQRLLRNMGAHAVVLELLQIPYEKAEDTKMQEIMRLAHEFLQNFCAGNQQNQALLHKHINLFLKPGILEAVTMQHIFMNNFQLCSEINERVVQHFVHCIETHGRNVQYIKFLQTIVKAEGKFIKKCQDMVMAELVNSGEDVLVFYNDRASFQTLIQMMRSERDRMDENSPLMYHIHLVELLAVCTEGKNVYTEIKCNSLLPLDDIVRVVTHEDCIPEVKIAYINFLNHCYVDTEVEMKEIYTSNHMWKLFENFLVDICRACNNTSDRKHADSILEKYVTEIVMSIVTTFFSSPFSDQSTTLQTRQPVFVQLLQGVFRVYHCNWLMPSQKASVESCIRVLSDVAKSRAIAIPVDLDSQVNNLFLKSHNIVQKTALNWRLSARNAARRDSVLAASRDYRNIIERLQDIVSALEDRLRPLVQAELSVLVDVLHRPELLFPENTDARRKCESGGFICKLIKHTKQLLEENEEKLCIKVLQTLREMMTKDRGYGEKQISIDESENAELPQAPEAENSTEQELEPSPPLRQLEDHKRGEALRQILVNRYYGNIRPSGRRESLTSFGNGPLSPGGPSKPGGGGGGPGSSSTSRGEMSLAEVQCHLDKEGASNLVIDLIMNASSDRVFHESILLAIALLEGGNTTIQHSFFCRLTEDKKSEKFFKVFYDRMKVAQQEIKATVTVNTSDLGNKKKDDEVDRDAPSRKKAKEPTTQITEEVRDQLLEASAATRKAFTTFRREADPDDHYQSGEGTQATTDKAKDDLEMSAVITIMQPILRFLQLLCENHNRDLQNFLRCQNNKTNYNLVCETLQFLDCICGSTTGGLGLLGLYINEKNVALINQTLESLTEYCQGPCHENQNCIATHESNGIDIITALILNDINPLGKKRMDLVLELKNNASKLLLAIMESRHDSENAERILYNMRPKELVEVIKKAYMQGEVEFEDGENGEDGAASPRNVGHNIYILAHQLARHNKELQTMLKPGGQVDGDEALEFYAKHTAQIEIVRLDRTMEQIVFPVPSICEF
Experimental: Bound proteins were pulled down with glutathione-Sepharose, and eluted with glutathione (Glu) (a) or 0.1 to 10 μM IP3 (a), IP2 (b), IP4 (c), IP6 (d), or ATP (e). IRBIT in the extract was analyzed with anti-IRBIT antibody and Alexa 680-conjugated secondary antibody (“a” (lower panel) and panels “b” to “e”). GST-EL in the glutathione and 0.1 to 10 μM IP3 eluate was analyzed with anti-GST antibody (a, upper panel). […] The relative intensity was plotted against the concentration of an eluant. Results are shown as the mean±standard deviation from at least three independent experiments.
For dissociation experiments, IRBIT in the diluted high salt extract was pulled down with GST-EL for precipitation and washed as described above. To resins, 100 μl of a wash buffer containing IP3, inositol 4,5-bisphosphate (IP2) (Dojindo), inositol 1,3,4,5-tetrakisphosphate (IP4) (Calbiochem), inositol 1,2,3,4,5,6-hexakisphosphate (IP6) (Calbiochem) or ATP (Amersham Pharmacia Biotech) (0.1, 0.3, 1, 3 or 10 μM) were added. After incubation on ice for 10 minutes, samples were centrifuged at 10,000 rpm for 1 minute, and the supernatant was subjected to immunoblot analysis with anti-IRBIT antibody or goat anti-GST antibody (Amersham Pharmacia Biotech). For quantification, Alexa 680-conjugated goat anti-rabbit IgG (Molecular Probes) was used as a secondary antibody. The fluorescence intensity of the immunoreactive bands of IRBIT was measured using the Odyssey infrared imaging system (Aloka). Quantitative data (the mean±SD from at least three independent experiments) is expressed as a percentage of the amount of IRBIT in 10 μM IP3 eluate.
IRBIT in the high salt extract from the mouse cerebellar crude microsome was trapped with GST-EL. Then elution was attempted with 0.1 to 10 μM IP3, and other inositolpolyphosphates, IP2, IP4, IP6 or ATP. […] It was confirmed that GST-EL was not detected (FIG. 8Aa, upper panel), even with longer exposure. […]

[2] = biological target: N-terminal region of IP3R1 (amino acids 1-604) (Mus musculus, UniProt P11881); conditions: cited from earlier work
Chain of N-terminal region of IP3R1 (amino acids 1-604) (P11881 1-604): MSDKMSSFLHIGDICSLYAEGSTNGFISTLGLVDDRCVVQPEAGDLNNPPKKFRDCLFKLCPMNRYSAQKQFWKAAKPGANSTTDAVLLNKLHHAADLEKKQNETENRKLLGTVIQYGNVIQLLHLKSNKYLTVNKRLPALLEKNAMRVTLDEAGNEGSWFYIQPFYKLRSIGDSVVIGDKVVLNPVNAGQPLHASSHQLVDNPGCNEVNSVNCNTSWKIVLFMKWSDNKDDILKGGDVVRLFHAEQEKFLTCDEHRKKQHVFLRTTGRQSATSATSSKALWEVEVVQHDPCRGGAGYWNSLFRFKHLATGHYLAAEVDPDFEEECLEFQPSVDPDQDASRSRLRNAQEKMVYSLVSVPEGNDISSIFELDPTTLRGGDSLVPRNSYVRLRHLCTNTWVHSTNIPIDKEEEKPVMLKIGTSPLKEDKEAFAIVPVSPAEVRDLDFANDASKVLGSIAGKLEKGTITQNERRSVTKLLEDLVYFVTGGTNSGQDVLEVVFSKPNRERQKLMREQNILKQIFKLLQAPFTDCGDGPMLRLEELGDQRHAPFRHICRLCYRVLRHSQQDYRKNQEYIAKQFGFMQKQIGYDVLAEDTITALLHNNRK

[3] = biological target: T2, GST-EL (mouse IP3R1 amino acids 1-2217) (Mus musculus, UniProt P11881, N1264K); assay: GST pulldown with GST-EL; assay type: binding; conditions: GFP fusion proteins in Cos-7 cell lysates
T2 construct: construct a GST-IP3R1 (1-2217) vector (termed GST-EL); made in house; host or cells: Sf9 cells (baculovirus)
T2 sequence (P11881 1-2217 N1264K): as the sequence (P11881 1-2217 N1264K) above
Experimental: Mouse cerebellar cytosolic fraction was diluted 2-fold with 10 mM Hepes (pH 7.4), 200 mM NaCl, 2 mM EDTA, 1 mM 2-ME and 0.02% Triton X-100. The high salt extract was diluted 5-fold with 10 mM Hepes (pH 7.4), 2 mM EDTA, 1 mM 2-ME and 0.01% Triton X-100. The diluted fractions (the final NaCl concentration of both fractions was 100 mM) were incubated with 20 μg of GST-EL or GST for 2 hours at 4° C. After adding 10 μl of glutathione-Sepharose and another 2 hours of incubation, the resins were washed 5 times with a wash buffer (10 mM Hepes (pH 7.4), 100 mM NaCl, 2 mM EDTA, 1 mM 2-ME, and 0.01% Triton X-100), and bound proteins were eluted with 20 mM glutathione.
The eluted proteins were analyzed by Western blotting with anti-IRBIT antibody. For dephosphorylation, the diluted high salt extract was incubated in the presence of or the absence of Escherichia coli alkaline phosphatase (Toyobo) with 2 mM MgCl2 for 30 minutes at 37° C. 5 mM EDTA was added, and then the resultant was subjected to pulldown assay as described above.
For the determination of the IP3R1-interacting region of IRBIT, Cos-7 cells expressing GFP-tagged full-length IRBIT or its truncated mutants were lysed in a lysis buffer (10 mM Hepes (pH7.4), 100 mM NaCl, 2 mM EDTA, 1 mM 2-ME, 0.5% Nonidet P-40, and protease inhibitor) for 30 minutes at 4° C., followed by centrifugation (100,000×g, 30 minutes). The supernatants were subjected to pulldown assay with GST-EL or GST as described above, and bound proteins were subjected to immunoblot analysis with anti-GFP antibody (Medical & Biological Laboratories).

Molecule: Nc1ncnc2c1ncn2[C@@H]1O[C@H](COP(=O)(O)OP(=O)(O)OP(=O)(O)O)[C@@H](O)[C@H]1O [ATP]
dissociation of IRBIT from GST-EL ([1]; 10 μM eluant): did not dissociate

Molecule: O=P(O)(O)O[C@@H]1[C@H](O)[C@H](O)[C@@H](OP(=O)(O)O)[C@H](OP(=O)(O)O)[C@H]1O [IP3, inositol 1,4,5-trisphosphate]
EC50 ([1]; pH 7.4 and 100 mM NaCl, IRBIT from mouse cerebellar high salt extract, read-out: EC50 (IP3 concentration required for half (50%)-maximal dissociation of IRBIT from GST-EL)): ~500 nM | dissociation efficiency relative to other inositol polyphosphates ([1]; versus IP2, IP4, IP6): approximately 50 times | affinity lower than the Kd value determined by a conventional assay ([2]; pH 7.4 and 150 mM NaCl versus conventional assay): approximately 7.5 fold | Kd ([2]; physiological conditions (pH 7.4 and 150 mM NaCl), read-out: Kd of IP3 binding): 336 nM

interaction with GST-EL [3]: bound to GST-EL efficiently
Molecule: GFP-IRBIT (1 to 277): GFP-tagged deletion mutant of IRBIT, amino acids 1-277

interaction with GST-EL [3]: much weaker
Molecule: GFP-IRBIT (1-104): GFP-tagged deletion mutant of IRBIT, amino acids 1-104 (N-terminal region)

interaction with GST-EL [3]: did not interact with GST-EL
Molecule: GFP-IRBIT (105-530): GFP-tagged deletion mutant of IRBIT, amino acids 105-530, lacking the N-terminal region

interaction with GST-EL [3]: bound to GST-EL efficiently
Molecule: GFP-IRBIT: GFP-tagged full-length IRBIT expressed in Cos-7 cells
